Like-named read-outs stand apart in the source and are kept apart here.

For experiment [1], the system named is MEF-IGF1R cells. In words: Proliferation/viability of MEF-IGF1R (Thymidine [14C] incorporation). Conditions: rhIGF1 100 ng/mL, incubation 72 hours, read-out: Test C IC50. It counts as cell-based. As to the method:
C) Measurement of the Proliferation/Viability of MEF-IGF1R
Cell culture: the MEF-IGF1R cells (stable clone of cells transfected with the receptor hIGF-1R) are cultured at 37° C. under 5% CO2 in EMEM medium containing 10% FCS.
Test procedure: the cells are seeded at 5000 cells per well in 96-well Cytostar plates (Amersham) with 0.2 mL of EMEM culture medium at 37° C. for 18 hours. The cells are then washed twice with EMEM medium and left to culture without serum for 24 hours. The compounds are then added at various concentrations in the presence of rhIGF1 (100 ng/mL) and 0.1 μCi of Thymidine [^14C] (specific activity ˜50 mCi/mmol) to give 0.2 mL of volume per well. After incubation for 72 hours in the presence of the compound, at 37° C. under 5% CO2, the incorporation of Thymidine [^14C] is measured by counting the radioactivity on a Microbeta trilux counter (Perkin-Elmer). The IC50 is determined from 10 increasing concentrations of the compound.
(§1) (i) The tests are performed in duplicate and the mean of the two tests is calculated.
(§2) (ii) The value of the signal of the maximum response is calculated from the positive control: cells stimulated with IGF1 without compound.
(§3) (iii) Value of the signal of the minimum response is calculated from the negative control: cells not stimulated with IGF1 without compound.
(§4) (iv) By using these values as maximum (100%) and minimum (0%), respectively, the data were normalized so as to give a percentage of the maximum response.
(§5) (v) A curve of dose response is plotted and the IC50 (the concentration of which the compound induces a 50% decrease in the signal) of the compound is calculated by non-linear regression analysis.

The target in experiment [2] is T1, human cytoplasmic domain of IGF-1R (Homo sapiens, UniProt P08069).
T1 construct: The human cytoplasmic domain of IGF-1R was cloned by fusion with glutathione S-transferase (GST); made in house; host or cells: SF21 insect cells (baculovirus, pFastBac-GST)
In words: Kinase IGF-1R test: inhibition of autophosphorylation of the enzyme (HTRF). It counts as biochemical. Conditions: ATP 120 μM. Here is the method: A) Experimental Protocol for the Kinase IGF-1R Test:
The inhibitory activity of the compounds on IGF1R is determined by measuring the inhibition of autophosphorylation of the enzyme using a time-resolved fluorescence test (HTRF). The human cytoplasmic domain of IGF-1R was cloned by fusion with glutathione S-transferase (GST) in the baculovirus expression vector pFastBac-GST. The protein is expressed in the SF21 cells and purified to about 80% homogeneity. For the enzymatic test, the test compound at 10 mM dissolved in DMSO is diluted in ⅓ steps in a 50 mM Hepes, pH 7.5, 5 mM MnCl2, 50 mM NaCl, 3% Glycerol, 0.025% Tween 20 buffer. To measure the inhibition, the successive dilutions of the compound are preincubated for 30 minutes and 90 minutes in the presence of 5 nM of enzyme, the final DMSO concentration not exceeding 1%. The enzymatic reaction is initiated to have a final ATP concentration of 120 μM, and is stopped after 5 minutes by addition of 100 mM Hepes, pH 7.0 buffer containing 0.4 M of potassium fluoride, 133 mM EDTA, 0.1% BSA, the XL665-labelled antibody anti-GST and the anti-phosphotyrosine antibody conjugated to europium cryptate Eu—K (Cis-Bio Int.). The characteristics of the two fluorophores, XL-665 and Eu—K, are available in G. Mathis et al., Anticancer Research, 1997, 17, pages 3011-3014. The energy transfer between the excited europium cryptate to the acceptor XL665 is proportional to the degree of autophosphorylation of IGF-1R. The specific long-lasting signal of XL-665 is measured in a GENios Pro TECAN plate counter. The inhibition of autophosphorylation of IGF-1R at time 30 minutes and 90 minutes with the test compounds of the invention is calculated relative to a 1% in DMSO control, whose activity is measured in the absence of compound. The curve representing the percentage of inhibition as a function of the log of the concentration is established to determine the concentration corresponding to 50% inhibition (IC50),

Experiment [3] addresses IGF-1R in MCF7 cells (Homo sapiens, UniProt P08069). In words: Autophosphorylation of IGF-1R in MCF7 cells after stimulation with IGF-1 (ELISA). It counts as cell-based. Details: endogenous in cells; host or cells: MCF-7 cells. Conditions: MCF-7 cells, compound added one hour before stimulation with IGF1; read-out: Test B IC50. Here is the method:
B) Measurement of the Autophosphorylation of IGF-1R in MCF7 Cells after Stimulation with IGF-1
Cell Culturing and Execution of the Test:
The autophosphorylation of IGF1R in the IGF1-induced cells is evaluated by means of an ELISA technique (Enzyme Linked ImmunoSorbent Assay). The MCF-7 are seeded at 60 000 cells per well in 6-well plates and incubated at 37° C., 5% CO2 in medium containing 10% serum. After one night in 10% serum, the cells are deprived of serum for 24 hours. The compounds are added to the medium one hour before stimulation with IGF1. After 10 minutes of stimulation with IGF1, the cells are lysed with a buffer (Hepes 50 mM pH 7.6, Triton X100 1%, orthovanadate 2 mM, protease inhibitor cocktail). The cell lysates are incubated on a 96-well plate precoated with an anti-IGF1R antibody, followed by incubation with an anti-phosphotyrosine antibody coupled to the enzyme peroxidase. The level of peroxidase activity (measured by OD with a luminescent substrate) reflects the phosphorylation status of the receptor.
as §1, §2, §3, §4, §5

The mark [4] stands for this setting: preincubation 30 minutes with 5 nM enzyme, read-out: Test A 30′ IC50.
Where [5] appears, read: preincubation 90 minutes with 5 nM enzyme, read-out: Test A 90′ IC50.

T1 sequence (P08069 960-1367 limits assumed): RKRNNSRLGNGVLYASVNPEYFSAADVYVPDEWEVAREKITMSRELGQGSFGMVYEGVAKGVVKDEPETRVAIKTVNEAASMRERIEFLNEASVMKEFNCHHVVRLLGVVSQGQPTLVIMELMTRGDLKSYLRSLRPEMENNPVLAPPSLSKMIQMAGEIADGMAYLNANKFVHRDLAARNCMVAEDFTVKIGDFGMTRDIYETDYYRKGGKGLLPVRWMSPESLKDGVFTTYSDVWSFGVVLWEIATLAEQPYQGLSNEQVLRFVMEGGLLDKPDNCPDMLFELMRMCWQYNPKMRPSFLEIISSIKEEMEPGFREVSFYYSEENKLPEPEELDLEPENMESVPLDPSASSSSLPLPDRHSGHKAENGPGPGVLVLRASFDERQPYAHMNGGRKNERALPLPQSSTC
IGF-1R in MCF7 cells, sequence (P08069 31-1367): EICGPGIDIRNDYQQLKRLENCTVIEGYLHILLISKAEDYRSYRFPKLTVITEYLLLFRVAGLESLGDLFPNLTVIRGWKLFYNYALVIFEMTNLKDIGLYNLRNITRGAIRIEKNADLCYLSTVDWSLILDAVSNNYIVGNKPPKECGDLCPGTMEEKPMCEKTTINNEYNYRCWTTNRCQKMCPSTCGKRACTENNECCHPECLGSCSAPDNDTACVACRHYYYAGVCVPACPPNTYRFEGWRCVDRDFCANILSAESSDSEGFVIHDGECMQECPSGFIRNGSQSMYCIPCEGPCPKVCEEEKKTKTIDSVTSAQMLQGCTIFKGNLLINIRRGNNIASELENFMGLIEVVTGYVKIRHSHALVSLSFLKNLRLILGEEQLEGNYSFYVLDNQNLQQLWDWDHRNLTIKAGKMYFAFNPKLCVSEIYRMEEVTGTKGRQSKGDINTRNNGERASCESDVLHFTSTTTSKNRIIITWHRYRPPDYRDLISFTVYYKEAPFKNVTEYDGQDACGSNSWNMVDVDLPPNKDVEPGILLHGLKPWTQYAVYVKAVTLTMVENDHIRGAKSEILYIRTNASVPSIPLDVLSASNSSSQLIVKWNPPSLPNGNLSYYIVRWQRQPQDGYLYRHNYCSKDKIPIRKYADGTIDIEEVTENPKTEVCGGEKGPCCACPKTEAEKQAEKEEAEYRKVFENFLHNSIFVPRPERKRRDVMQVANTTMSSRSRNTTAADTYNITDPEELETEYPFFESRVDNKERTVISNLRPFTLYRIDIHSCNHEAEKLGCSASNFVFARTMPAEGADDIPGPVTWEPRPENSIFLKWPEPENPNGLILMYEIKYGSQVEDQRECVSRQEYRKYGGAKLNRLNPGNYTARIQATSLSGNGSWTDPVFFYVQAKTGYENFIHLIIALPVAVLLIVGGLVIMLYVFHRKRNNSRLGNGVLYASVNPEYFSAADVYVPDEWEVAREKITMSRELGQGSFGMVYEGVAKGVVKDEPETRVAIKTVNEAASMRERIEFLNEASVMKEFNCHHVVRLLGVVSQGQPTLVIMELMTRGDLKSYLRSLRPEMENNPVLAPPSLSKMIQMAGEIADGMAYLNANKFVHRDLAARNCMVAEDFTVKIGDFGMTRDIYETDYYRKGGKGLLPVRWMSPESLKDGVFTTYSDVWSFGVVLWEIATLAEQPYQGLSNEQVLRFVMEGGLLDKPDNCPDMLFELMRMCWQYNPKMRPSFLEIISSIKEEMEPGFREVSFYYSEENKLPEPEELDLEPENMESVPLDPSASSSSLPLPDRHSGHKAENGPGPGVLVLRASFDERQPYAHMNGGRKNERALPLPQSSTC

Turning to `CC1(C)C(=O)N(c2ccc(SC(F)(F)F)cc2)C(=O)N1Cc1ccnc(NC(=O)NCCCCN2CCCC2)c1` [Example 21, 1-{4-[(5,5-dimethyl-2,4-dioxo-3-{4-[(trifluoro-methyl)thio]phenyl}imidazolidin-1-yl)methyl]pyridin-2-yl}-3-(4-pyrrolidin-1-ylbutyl)urea], the IC50 in experiment [1] is > 100 nM; in experiment [2] (setting [4]) it was 10 to 100 nM; in experiment [2] (setting [5]), 10 to 100 nM; in experiment [3], 10 to 100 nM.

Consider `CC1(C)C(=O)N(c2ccc(SC(F)(F)F)cc2)C(=O)N1Cc1ccnc(NC(=O)NC2CC2)c1` [Example 22, 1-cyclopropyl-3-{4-[(5,5-dimethyl-2,4-dioxo-3-{4-[(trifluoromethyl)thio]phenyl}imidazolidin-1-yl)methyl]pyridin-2-yl}urea], for which the 50% inhibitory concentration (IC50) in experiment [1], in experiment [2] (setting [4]), in experiment [2] (setting [5]) and in experiment [3] was 10 to 100 nM in each case.

With `CC1(C)C(=O)N(c2ccc(SC(F)(F)F)cc2)C(=O)N1Cc1ccnc(NC(=O)NC2CCC2)c1` [Example 23, 1-cyclobutyl-3-{4-[(5,5-dimethyl-2,4-dioxo-3-{4-[(trifluoromethyl)thio]phenyl}imidazolidin-1-yl)methyl]pyridin-2-yl}urea], the 50% inhibitory concentration (IC50) in experiment [1], in experiment [2] (setting [4]), in experiment [2] (setting [5]) and in experiment [3] was 10 to 100 nM throughout.

Take `CC1(C)C(=O)N(c2ccc(SC(F)(F)F)cc2)C(=O)N1Cc1ccnc(NC(=O)N2CCC2)c1` [Example 27, N-{4-[(5,5-dimethyl-2,4-dioxo-3-{4-[(trifluoro-methyl)thio]phenyl}imidazolidin-1-yl)methyl]pyridin-2-yl}azetidine-1-carboxamide]: the half-inhibitory concentration (IC50) in experiment [1] was < 10 nM; in experiment [2] (setting [4]), 10 to 100 nM; in experiment [2] (setting [5]), 10 to 100 nM; in experiment [3] it was 10 to 100 nM.

As for `CC1(C)C(=O)N(c2ccc(SC(F)(F)F)cc2)C(=O)N1Cc1ccnc(NC(=O)N2CCCC2)c1` [Example 28, N-{4-[(5,5-dimethyl-2,4-dioxo-3-{4-[(trifluoromethyl)thio]phenyl}imidazolidin-1-yl)methyl]pyridin-2-yl}pyrrolidine-1-carboxamide], the half-maximal inhibitory concentration (IC50) in experiment [1] was 10 to 100 nM; in experiment [2] (setting [4]) it was 10 to 100 nM; in experiment [2] (setting [5]) it was 10 to 100 nM; in experiment [3] it was < 10 nM.

For the compound `CC1(C)C(=O)N(c2ccc(SC(F)(F)F)cc2)C(=O)N1Cc1ccnc(NC(=O)N2CCOCC2)c1` [Example 29, N-{4-[(5,5-dimethyl-2,4-dioxo-3-{4-[(trifluoro-methyl)thio]phenyl}imidazolidin-1-yl)methyl]pyridin-2-yl}morpholine-4-carboxamide], the IC50 in experiment [1], in experiment [2] (setting [4]), in experiment [2] (setting [5]) and in experiment [3] was 10 to 100 nM each time.

For the compound `CN1CCN(C(=O)Nc2cc(CN3C(=O)N(c4ccc(SC(F)(F)F)cc4)C(=O)C3(C)C)ccn2)CC1` [Example 30, N-{4-[(5,5-dimethyl-2,4-dioxo-3-{4-[(trifluoro-methyl)thio]phenyl}imidazolidin-1-yl)methyl]pyridin-2-yl}-4-methylpiperazine-1-carboxamide], the IC50 is > 100 nM in experiment [1], 10 to 100 nM in experiment [2] (setting [4]), < 10 nM in experiment [2] (setting [5]) and 10 to 100 nM in experiment [3].

For the compound `CCN(C)C(=O)Nc1cc(CN2C(=O)N(c3ccc(SC(F)(F)F)cc3)C(=O)C2(C)C)ccn1` [Example 34, 3-{4-[(5,5-dimethyl-2,4-dioxo-3-{4-[(trifluoro-methyl)thio]phenyl}imidazolidin-1-yl)methyl]pyridin-2-yl}-1-ethyl-1-methylurea], the IC50 in experiment [1], in experiment [2] (setting [4]), in experiment [2] (setting [5]) and in experiment [3] was 10 to 100 nM in each case.

As to `CCCN(C)C(=O)Nc1cc(CN2C(=O)N(c3ccc(SC(F)(F)F)cc3)C(=O)C2(C)C)ccn1` [Example 35, 3-{4-[(5,5-dimethyl-2,4-dioxo-3-{4-[(trifluoromethyl)thio]phenyl}imidazolidin-1-yl)methyl]pyridin-2-yl}-1-methyl-1-propylurea], the concentration for half-maximal inhibition (IC50) in experiment [1], in experiment [2] (setting [4]), in experiment [2] (setting [5]) and in experiment [3] was 10 to 100 nM each time.

Consider `CCCCN(C)C(=O)Nc1cc(CN2C(=O)N(c3ccc(SC(F)(F)F)cc3)C(=O)C2(C)C)ccn1` [Example 36, 1-butyl-3-{4-[(5,5-dimethyl-2,4-dioxo-3-{4-[(trifluoromethyl)thio]phenyl}imidazolidin-1-yl)methyl]pyridin-2-yl}-1-methylurea], for which the half-inhibitory concentration (IC50) in experiment [1], in experiment [2] (setting [4]), in experiment [2] (setting [5]) and in experiment [3] was 10 to 100 nM throughout.

For the compound `CN(C)CCCNC(=O)Nc1cc(CN2C(=O)N(c3ccc(SC(F)(F)F)cc3)C(=O)C2(C)C)ccn1` [Example 39, 1-[3-(dimethylamino)propyl]-3-{4-[(5,5-dimethyl-2,4-dioxo-3-{4-[(trifluoromethyl)thio]phenyl}imidazolidin-1-yl)methyl]pyridin-2-yl}urea], the IC50 was > 100 nM in experiment [1], 10 to 100 nM in experiment [2] (setting [4]), 10 to 100 nM in experiment [2] (setting [5]) and > 100 nM in experiment [3].

In the case of `CC1(C)C(=O)N(c2ccc(SC(F)(F)F)cc2)C(=O)N1Cc1ccnc(Nc2cccc(F)c2)c1` [Example 40C, 1-({2-[(3-fluorophenyl)amino]pyridin-4-yl}methyl)-5,5-dimethyl-3-{4-[(trifluoromethyl)thio]phenyl}imidazolidine-2,4-dione], the IC50 in experiment [1] was 10 to 100 nM; in experiment [2] (setting [4]), > 100 nM; in experiment [2] (setting [5]) it was 10 to 100 nM; in experiment [3] it was 10 to 100 nM.

With `CC1(C)C(=O)N(c2ccc(SC(F)(F)F)cc2)C(=O)N1Cc1ccnc(NC2CC2)c1` [Example 40D, 1-{[2-(cyclopropylamino)pyridin-4-yl]methyl}-5,5-dimethyl-3-{4-[(trifluoromethyl)thio]phenyl}imidazolidine-2,4-dione], the IC50 in experiment [1] was > 100 nM; in experiment [2] (setting [4]) it was 10 to 100 nM; in experiment [2] (setting [5]), 10 to 100 nM; in experiment [3], 10 to 100 nM.

Regarding `CC1(C)C(=O)N(c2ccc(SC(F)(F)F)cc2)C(=O)N1Cc1ccnc(Nc2cccnc2Cl)c1` [Example 40E, 1-({2-[(2-chloropyridin-3-yl)amino]pyridin-4-yl}-methyl)-5,5-dimethyl-3-{4-[(trifluoromethyl)thio]phenyl}imidazolidine-2,4-dione], the half-inhibitory concentration (IC50) in experiment [1], in experiment [2] (setting [4]), in experiment [2] (setting [5]) and in experiment [3] was 10 to 100 nM each time.
